For one compound, IC50 results are on record in publication PMC9504018, “The hEag1 K^+ Channel Inhibitor Astemizole Stimulates Ca^2+ Deposition in SaOS-2 and MG-63 Osteosarcoma Cultures” (International Journal of Molecular Sciences, 2022).

In general, pIC50 refers to the IC50 on a negative log10 scale, so that one unit is a factor of ten. A high value points to a small IC50.

In the test the target is T1, hEag1 (Kv10.1) (Homo sapiens, UniProt O95259).
T1 construct: gene KCNH1
T1 sequence (O95259 1-989): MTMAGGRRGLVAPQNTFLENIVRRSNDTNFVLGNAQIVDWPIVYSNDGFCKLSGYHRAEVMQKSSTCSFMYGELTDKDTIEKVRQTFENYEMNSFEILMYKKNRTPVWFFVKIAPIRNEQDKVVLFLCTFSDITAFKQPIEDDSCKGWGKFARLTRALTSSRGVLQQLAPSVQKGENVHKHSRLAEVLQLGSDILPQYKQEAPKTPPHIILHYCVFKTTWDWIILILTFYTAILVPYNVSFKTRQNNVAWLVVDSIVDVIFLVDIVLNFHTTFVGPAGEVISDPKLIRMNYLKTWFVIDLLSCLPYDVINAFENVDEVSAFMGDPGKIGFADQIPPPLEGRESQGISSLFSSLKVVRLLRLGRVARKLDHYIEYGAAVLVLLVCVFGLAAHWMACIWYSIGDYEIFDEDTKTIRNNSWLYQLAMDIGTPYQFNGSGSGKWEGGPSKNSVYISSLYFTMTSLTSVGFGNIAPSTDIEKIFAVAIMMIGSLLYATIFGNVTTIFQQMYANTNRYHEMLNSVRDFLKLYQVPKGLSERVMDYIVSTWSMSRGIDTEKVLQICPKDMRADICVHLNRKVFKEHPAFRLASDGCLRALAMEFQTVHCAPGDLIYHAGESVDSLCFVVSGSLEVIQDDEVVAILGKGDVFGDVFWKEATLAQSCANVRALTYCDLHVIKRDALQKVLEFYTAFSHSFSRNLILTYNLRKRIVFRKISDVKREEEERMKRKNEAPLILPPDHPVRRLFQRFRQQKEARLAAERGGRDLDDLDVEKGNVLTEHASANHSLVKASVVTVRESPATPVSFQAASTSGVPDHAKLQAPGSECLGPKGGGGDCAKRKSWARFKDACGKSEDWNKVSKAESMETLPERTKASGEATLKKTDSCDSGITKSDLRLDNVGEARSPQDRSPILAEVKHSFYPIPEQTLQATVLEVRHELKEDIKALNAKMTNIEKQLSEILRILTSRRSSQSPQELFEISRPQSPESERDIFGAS
Put plainly: whole-cell patch clamp of the endogenous current in SaOS-2 cells, six-dose concentration-response. It is filed as cell-based.

pIC50: −log10 of the molar value.

For `COc1ccc(CCN2CCC(Nc3nc4ccccc4n3Cc3ccc(F)cc3)CC2)cc1` [astemizole], the negative-log IC50 (pIC50) is ~6.87.
